From publication PMC11393453, “Phosphorylation of tau at a single residue inhibits binding to the E3 ubiquitin ligase, CHIP” (Nature Communications, 2024)

Test system: CHIP
Assay: NanoBiT live cell PPI assay (CHIP-tau split luciferase)
Assay type: cell-based
Conditions: Fig 1B, normalized to FL tau with vehicle, 30nM OA
Experimental: Fig. 1 Phosphorylation of tauC3 inhibits interaction with CHIP. A Cartoon schematic of the live-cell NanoBiT assay for measuring CHIP-tau PPIs (NanoBiT PDB = 7SNX; CHIP PDB = 2C2L). B Results of NanoBiT assays for CHIP interactions with tau proteoforms following treatment with okadaic acid (30 nM, 18 h) or DMSO control. Luminescence normalized to CHIP binding to FL 0N4R tau treated with vehicle (dashed line). Error bars represent standard deviation (SD). Statistical significance was determined by two-way ANOVA with Bonferroni’s post hoc analysis (n = 3 biological replicates). CTRL = mock transfected control. C Tau proteoforms binding to immobilized CHIP measured by ELISA. Assay was performed in technical triplicate and normalized to maximum absorbance at 450 nm. D Dissociation constants derived from (C). Error bars represent SD. E In vitro ubiquitination of tau proteoforms by CHIP. Samples were collected at the denoted timepoints, quenched in SDS-PAGE loading buffer, and analyzed by western blot. Assay was performed once.
Fig. 2 Phosphorylation of tauC3 Ser416 is sufficient to inhibit interaction with CHIP. A Cartoon depicting constructs used for mapping of inhibitory phosphorylation sites by NanoBiT live cell assays. B NanoBiT live cell assay for CHIP interactions with truncated tau constructs following treatment with okadaic acid (30 nM, 18 h) or DMSO control. Data are shown as the difference between okadaic acid treated samples and vehicle control. Error bars represent SD. Statistical significance was determined by two-sided, one-way ANOVA with Tukey’s post hoc analysis (n = 3 biological replicates). C Apparent change in melting temperatures (Tmapp) for CHIP incubated with DMSO control or Hsp70 C-terminal peptides, as determined by DSF. Error bars represent SD. (n = 4 technical replicates). D DSF experiments performed and analyzed as in the previous panel, but with tauC3-derived peptides. (n = 4 technical replicates). E Competition FP experiment showing displacement of fluorescent tracer from the CHIP TPR domain by various 10-mer Hsp70 or tauC3-derived peptides. Experiments were performed in technical quadruplicate. F Inhibition constants derived from (E). Error bars represent SD. G Tau proteoforms binding to immobilized CHIP, as measured by ELISA. Assay was performed in technical triplicate and normalized to maximum absorbance at 450 nm. H Dissociation constants derived from (G). Error bars represent SD.
CHIP-substrate NanoBiT PPI assay was performed as previously described. Briefly, HEK293T cells were seeded in poly-D-lysine coated 96-well plates (Corning, flat bottom, white opaque) in Opti-MEM. Cells were transfected with 50 ng each SmBiT/LgBiT DNA using Lipofectamine 3000 (Thermo Fisher) in Opti-MEM according to the manufacturer’s instructions. Transfections were performed for 24 h, after which the media was replaced with fresh Opti-MEM containing DMSO or 30 nM okadaic acid. Cells were incubated for an additional […] at 37 °C/5% CO2 in a humidified incubator. Following this incubation, 12.5 uL 1X Nano-Glo live cell luciferase reagent (Promega) diluted in LCS buffer (Promega) was added to each well, and samples were incubated for 10 min at room temperature in the dark to allow luminescence levels to stabilize. […] Un-transfected cells were used to obtain background measurements which were subtracted from observed luminescence values.

tau: full length (FL) 0N4R splice isoform of tau, unmodified; recombinant or expressed in cells
fold change of luminescence (replicate 1): 1.804
fold change of luminescence (replicate 2): 1.978
fold change of luminescence (replicate 3): 1.758
